Source: US20220194952A1, “TETRAPYRROLIC CONJUGATES AND USES THEREOF FOR IMAGING” (Health Research, Inc., priority 2019, published 2022)

How the values were obtained:
Colon26 tumors = test: In vivo whole body tumor fluorescence imaging (IVIS Spectrum); parameters: species or system BALB/c mice; details: non-radioactive analogs, i.v., post-injection
Procedure: Before evaluating in vivo PDT efficacy of PS 4 by exposing the tumors with light, the time point for optimal tumor uptake of PS was determined by whole body fluorescence imaging of tumored mice at various time points after injecting the PS.
The multi-spectral imaging system, IVIS Spectrum (Perkin-Elmer) along with Living Image (image acquisition and analysis software) was used. IVIS Spectrum has the capability to use either trans-illumination (from the bottom) or epi-illumination (from the top) to illuminate in vivo fluorescent sources. […] Regions of interest (ROI) were defined for areas of compound accumulation (tumor, liver, skin) and total and average signal within the region were recorded. Fluorescent intensity is expressed as the total radiant efficiency ([p/s]/[μW/cm^2]. Results are expressed as mean total radiant efficiency of three mice±SD.

[1] = Fluorescence quantum yield and lifetime in benzonitrile (PhCN); type: physicochemical
Procedure: (B) Fluorescence decay curve of 4 observed at 787 nm. Excitation wavelength: 651 nm.
(§1) Instrumentation: Measurement of fluorescence quantum yields were carried out on a Hamamatsu C9920-0X(PMA-12) U6039-05 fluorescence spectrofluorometer. Femtosecond laser flash photolysis was conducted using a Clark-MXR 2010 laser system and an optical detection system provided by Ultrafast Systems (Helios). The source for the pump and probe pulses were derived from the fundamental output of Clark laser system (775 nm, 1 mJ pulse-1 and fwhm=150 fs) at a repetition rate of 1 kHz. A second harmonic generator introduced in the path of the laser beam provided […] laser pulses for excitation. A 95% of the fundamental output of the laser was used to generate the second harmonic, while 5% of the deflected output was used for white light generation. Prior to generating the probe continuum, the laser pulse was fed to a delay line that provided an experimental time window of 1.6 ns with a maximum step resolution of 7 fs. The pump beam was attenuated at 5 μJ pulse-1 with a spot size of 2 mm diameter at the sample cell where it was merged with the white probe pulse in a close angle (<10°). […] The photodynamics were monitored by continuous exposure to a xenon lamp for visible region and halogen lamp for near-IR region as a probe light and a photomultiplier tube (Hamamatsu 2949) as a detector.

[2] = Nanosecond laser flash transient absorption of triplet excited state in PhCN; type: physicochemical
Procedure: The decay time profiles at 580 nm in (b) argon- and (c) air-saturated PhCN. The single-exponential fitting curves are shown as gray lines.
Singlet oxygen is generated by energy transfer from the triplet excited state of 4 to molecular oxygen (O2). […] The decay profile of T-T absorption was obeyed with the single exponential curve (FIG. 6b). The lifetime was determined to be τ=38 μs. […] The energy transfer rate constant was determined to be 1.4×10^9M^−1 s^−1, indicating the efficient energy transfer occurred between the triplet excited state of 4 and O2 to for singlet oxygen generation.
as §1

[3] = Photobleaching in 17% bovine calf serum; type: physicochemical; details: 17% BCS, dye laser 75 mW/cm^2, 785 nm for 4
Procedure: Photobleaching was performed in quartz cuvettes on a 5 μM solution of 2 and a 25 μM solution of 4 in 17% BCS. The higher molarity was chosen to approximate the absorbance of 2 at 5 μM. A dye laser was used at dose rate 75 mW/cm^2, and excitation wavelength for 2 was 660 nm and for 4 was 785 nm.
In photodynamic therapy, photobleaching is the photochemical alteration of a chromophore or a fluorophore molecule such that could either permanently is unable to fluoresce or alter its fluorescence characteristics. This is caused by cleaving of the covalent bonds or non-specific reaction between the reactive oxygen species (e.g., singlet oxygen) and the molecule. These […] species formed by conversion of the molecular oxygen present in tumor to singlet oxygen by exposing the photosensitizer with light at an appropriate wavelength. The rate of photobleaching of the PS should depend (a) availability of oxygen, (b) photostability of PS and finally (c) the singlet oxygen (or other reactive oxygen species) producing ability of the PS.
To investigate the photobleaching characteristics of the photosensitizers, compounds 2 and 4 in equimolar concentrations (5 μM) were taken in quartz cuvettes in 17% bovine calf serum. Dye lasers with appropriate wavelength (2: 660 nm and 4: 785 nm) were used at a dose rate of 75 mW/cm^2. Both the compounds in formulated forms were irradiated with light and the absorption spectra at their long wavelength absorptions were measured with time. The decay in absorbance was plotted against the time of light exposure.

time of optimal uptake in tumor (fluorescence imaging) (Colon26 tumors): 24 h
fluorescence lifetime ([1]; PhCN, decay observed at 787 nm, excitation 651 nm): 0.81 ns
Fluorescence quantum yield Φ ([1]; benzonitrile (PhCN), excited at 532 nm): 0.013
energy transfer rate constant, triplet excited state to O2 ([2]; PhCN): 1.4e+09 M⁻¹ s⁻¹
triplet decay rate constant in the presence of dissolved O2 ([2]; air-saturated PhCN): 2.3e+06 s⁻¹
triplet excited state lifetime τ ([2]; deaerated (argon-saturated) PhCN, T-T absorption decay at 580 nm): 38 μs
photobleaching (in words) [3]: negligible photobleaching
Substance: methyl 3-[1′-(m-iodobenzyloxy)ethyl]-3-devinyl-13^3-keto-13^2-methoxycyclohexene [Compound 4]
